We go through three compounds from patent publication US20120134974A1, “METHODS FOR REMOVING PLASMA” (BIOVEC TRANSFUSION, LLC, priority 2010, published 2012).

The test system of one assay is platelets. Briefly: thromboelastography (TEG) of platelet concentrate. In kind it is cell-based. Particulars: 2.4 mg Argatroban in 350 ml of platelets; straight line on the thromboelastogram. On the procedure:
In one experiment, platelet concentrates obtained by the buffy coat method were used for the study. Integrilin (Eptifibatide), a GPIIb/IIIa inhibitor, and Argabotran, a synthetic thrombin inhibitor, were added to platelet units at three times the therapeutic concentrations (i.e., 48 micrograms of Integrilin and 2.4 mg of Argatroban in 350 ml of platelets). Removal of the inhibitors was initiated by diafiltration. 15 ml of the platelet concentrate was diafiltered against 60 ml of a solution containing 20% fresh frozen plasma in a commercially used platelet storage solution (T-Sol). The samples were stored overnight and platelet functionality was measured on Day 2, by Thromboelastography (TEG) and using standard agonists such as TRAP and collagen.
In another experiment, Integrilin and Argabotran were added to platelet units at three times the therapeutic loading concentrations (i.e., 48 micrograms for Integrilin and 2.4 mg for Argatroban in 350 ml of platelets). Prior to the addition of the inhibitors, baseline data of platelet functionality was obtained. These baseline data included thromboelastography, which assesses overall platelet function and clot strength, as well as the TRAP test and the collagen test, which are additional markers of platelet functionality. […]

The target in the next assay is factor Xa (Homo sapiens, UniProt P00742). Particulars: cited from earlier work.
The subject of the next assay is PT and αPTT. Particulars: more sensitive to the αPTT; cited from earlier work.

Chain of factor Xa (P00742 235-488 limits assumed): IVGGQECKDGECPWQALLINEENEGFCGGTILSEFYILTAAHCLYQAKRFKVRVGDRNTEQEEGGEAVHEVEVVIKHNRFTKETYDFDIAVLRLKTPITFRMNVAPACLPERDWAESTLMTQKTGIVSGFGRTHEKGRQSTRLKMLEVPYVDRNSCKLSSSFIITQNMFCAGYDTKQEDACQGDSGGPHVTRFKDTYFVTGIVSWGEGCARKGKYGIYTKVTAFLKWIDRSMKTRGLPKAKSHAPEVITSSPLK
Chain of factor Xa (P00742 41-179 partner limits assumed): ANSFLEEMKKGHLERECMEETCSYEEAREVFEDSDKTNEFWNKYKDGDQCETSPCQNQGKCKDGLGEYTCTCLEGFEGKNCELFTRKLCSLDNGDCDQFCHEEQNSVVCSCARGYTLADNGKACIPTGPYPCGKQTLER

As for `CC1CNc2c(cccc2S(=O)(=O)N[C@@H](CCCNC(=N)N)C(=O)N2CC[C@@H](C)C[C@@H]2C(=O)O)C1` (stereo partly shown) [Argatroban], the “effect on activation of platelets on the thromboelastogram” value with platelets is “completely blocks the activation of platelets”. Turning to `CC(=N)N1CC[C@H](Oc2ccc([C@H](Cc3ccc4ccc(C(=N)N)cc4c3)C(=O)O)cc2)C1` [DX-9065a], the “mode of factor Xa inhibition” value on factor Xa is “competitive manner”. Turning to `COc1ccc2ccc(S(=O)(=O)N(C)[C@H]3CCN(Cc4csc(C(=N)N)c4)C3=O)cc2c1` [RPR-120844], in the assay on PT and αPTT, the “effect on PT and αPTT” value is “prolongs the PT and αPTT in a concentration-dependent manner”. Besides, at factor Xa, the “mode of factor Xa inhibition” value was “fast binding, reversible and competitive inhibitor”.
